Results on one sequence are retold here after patent US20040122209A1, “Products for regulating the degradation of collagen and methods for identifying same” (Shriners Hospital For Children, priority 2002, published 2004).

For assay [1], the system named is bovine articular cartilage explant. Briefly: Proteoglycan (GAG) content and release in bovine explant culture. It counts as cell-based. The following applies: subpeptides at 1 and 10 μM. The method, then: The cartilages were prepared as previously described (Dahlberg, L. et al. (2000) supra. In brief, the cartilage samples were washed three times with basal culture medium containing Dulbecco's modified Eagle's medium (DMEM; Gibco BRL, Life Technologies, Grand Island, N.Y.) with 20 mM HEAPS buffer (pH 7.4) (Gibco BRL), 45 mM NaHCO3, 100 units/ml penicillin, 100 μg/ml streptomycin and 150 μg/ml gentamycin sulphate (Medium A). Full-depth cartilage slices from a single area, around 20 mm×20 mm were cut vertical to the articular surface and then into cubes of approximately 2 mm×2 mm (5-7 cubes were randomly obtained and wet weights about 50-70 mg/well determined). The cartilage was assigned to 48 well plate (ca 40 mg/well) and kept in Medium A supplemented with 50 μg/ml ascorbic acid, 0.1 mg/bovine serum albumin, 50 μg/ml insulin, 5.0 μg/ml and 5.0 μg/ml sodium DMEM alone at 37° C. in 95% air/5% CO2. The cartilage was precultured for 2 days and medium was changed at day 0. Thereafter medium (as described in pellet cultures) was replaced every four days. Various CNBr fragments and/or synthetic peptides were freshly added from day 0 at each medium change. Thereafter, cartilage explants and conditioned media were harvested and stored at −20° C. In order to show the specificity of the peptide fragments of one embodiment on degradation of type II collagen as compared with proteoglycan, primarily aggrecan, sulphated glycosaminoglycan (GAG) content was determined in both the α-chymotrypsin and proteinase K digests for total proteoglycan (predominantly aggrecan) content in cell pellets, cartilage explants and also in conditioned media. Measurement of release of proteoglycan into media was tested using dimethylene blue dye binding as previously described (Dahlberg, L. et al. (2000) supra).

The subject of another assay is MMP-1. Briefly: RT-PCR of MMP-1 mRNA in human chondrocyte culture. It counts as cell-based. The following applies: 24 hours incubation; data not shown. From the text:
Isolated normal human chondrocytes were used for chondrocyte cultures, detection of integrin expression by FACScan, and cell attachment assays. The dissected normal human cartilage obtained at autopsy was cut into small cubes 2-4 mm in size. Chondrocytes were isolated as previously described (34), with some modifications. Briefly, the cubes were washed three times with medium (A). Thereafter, the diced cartilage was digested with 0.1% (wt/vol) trypsin (Sigma) and 0.02% (wt/vol) EDTA (Sigma) for 60 minutes (25 ml/10 g wet weight tissue) at 37° C. After washing the cartilage with Medium A containing 10% heat-inactivated fetal calf serum (FCS) to inhibit the trypsin, the digestion was continued in the same medium with serum (50 ml/10 g wet weight tissue) containing 0.2% (wt/vol) collagenase (type IA; Sigma) for 16 h at 37° C. with gentle agitation on a gyrotary shaker. Undigested cartilage was removed by filtration through a layer of nylon mesh (Cell Strainer; Becton Dickinson Labware, NJ). […]
Total RNA was isolated from chondrocytes or cartilage explants by the guanidine isothiocyanate procedure according to Chomczynski and Sacchi (Chomczynski, P. et al., Anal. Biochem. 162:156-9 (1987)) with some modifications. […] The total RNA pellet was resuspended in diethyl pyrocarbonate-treated (DEPC) water and the amount of total RNA was measured by reading optical density at 260 nm. […]

In the case of ERGPPGPQGARGFPGTPGLPGVK [CB12-II], in assay [1], the proteoglycan breakdown entry is reported as “no significant effect”. The “MMP-1 gene expression (mRNA by RT-PCR)” value in the assay on MMP-1 is “clearly induced”.
